Where a SMILES comes first, the peptide text is derived from it.
How the values were obtained:
[1] = tested on: antibiotic- and AMP-evolved strains of MG1655; details: 1.5% H2O2, 37°C, 1 h in the dark, CFU counting
Experimental: Bacterial cells were proportionally mixed with 3% hydrogen peroxide solution and incubated at 37°C for 1 h in the dark. The reaction was terminated by adding a catalase solution with a final concentration of 1,000 U/mL. After diluting the mixture to an appropriate gradient, the drops were carried out on LB agar plates, and then the agar plates were placed in a 37°C incubator overnight for colony counting.

[2] = tested on: E. coli K-12 MG1655; assay: microbe, parasite or virus in culture; type: cell-based, Escherichia coli; details: for MIC of MG1655 under the pressure of the same drug, generation 20 / MIC of MG1655 under the pressure of the same drug, generation 30 / MIC of MG1655 under the pressure of the same drug, generation 40 / MIC of MG1655 under the pressure of the same drug, generation 50 / MIC of MG1655 under the pressure of the same drug, generation 60 / MIC of MG1655 under the pressure of the same drug, generation 70 / MIC of MG1655 under the pressure of the same drug, generation 80 / MIC of MG1655 under the pressure of the same drug, generation 90 / MIC of MG1655 under the pressure of the same drug, generation 100 / MIC of MG1655 under the pressure of the same drug, generation 110 / MIC of MG1655 under the pressure of the same drug, generation 120: as E2; for MIC of MG1655 under the pressure of the same drug, generation primary: broth microdilution (CLSI), primary MG1655 before passage; for MIC of MG1655 under the pressure of the same drug, generation 10: broth microdilution, line passaged in MH broth with sub-inhibitory drug, 12 h per passage, 37℃; for evolution of resistance in MG1655 (in words): MG1655, sub-inhibitory drug in MH broth over 60 days
Experimental: (§1) The broth microdilution method was used to measure the MIC values of antibiotics and peptides according to the Clinical and Laboratory Standards Institute guidelines. The MIC value is defined as the lowest drug concentration without visible bacteria.
Eight antibiotics and ten AMPs at the sub-inhibitory concentration were prepared. A 300-µL system, including 260 µL of MH broth, 30 µL of prepared drug, and 10 µL of bacterial culture, was used for resistance passages. After 12 h of incubation at 37℃ and 200 rpm, 10 µL of the above bacterial culture was added into the new sterile drug-containing broth. MIC values of bacterial culture were determined. The drug concentration was adjusted according to the MIC value change until the end of the 120 passages.

[3] = tested on: DOX120 (evolved MG1655); assay: microbe, parasite or virus in culture; type: cell-based, Escherichia coli; details: broth microdilution; doxycycline-evolved strain
Description: (§2) To ensure the stable resistance evolution and inheritance of MG1655 under different drugs, we randomly selected three monoclonals from the evolved strains. The final antibiotic-evolved strains were designated as AMP120, AZI120, CHL80, CIP120, DOX120, KAN80, NIT70, and TMP30, while the final AMP-evolved strains were named COL120, Ind120, Omi120, Pex120, PGLA120, Pleu120, R8120, SAAP120, LI120, and SLAP120.
as §1

[4] = tested on: COL120 (evolved MG1655); assay: microbe, parasite or virus in culture; type: cell-based, Escherichia coli; details: broth microdilution; colistin-evolved strain
Description: as §2, §1

[5] = tested on: CHL80 (evolved MG1655); assay: microbe, parasite or virus in culture; type: cell-based, Escherichia coli; details: broth microdilution; chloramphenicol-evolved strain
Description: as §2, §1

[6] = tested on: NIT70 (evolved MG1655); assay: microbe, parasite or virus in culture; type: cell-based, Escherichia coli; details: broth microdilution; nitrofurantoin-evolved strain
Description: as §2, §1

[7] = tested on: AZI120 (evolved MG1655); assay: microbe, parasite or virus in culture; type: cell-based, Escherichia coli; details: broth microdilution; azithromycin-evolved strain
Description: as §2, §1

[8] = tested on: TMP30 (evolved MG1655); assay: microbe, parasite or virus in culture; type: cell-based, Escherichia coli; details: broth microdilution; trimethoprim-evolved strain
Description: as §2, §1

[9] = tested on: CIP120 (evolved MG1655); assay: microbe, parasite or virus in culture; type: cell-based, Escherichia coli; details: broth microdilution; ciprofloxacin-evolved strain
Description: as §2, §1

[10] = tested on: AMP120 (evolved MG1655); assay: microbe, parasite or virus in culture; type: cell-based, Escherichia coli; details: for MIC values of evolved MG1655, strain AMP120: broth microdilution, ampicillin-evolved strain
Description: as §2, §1

[11] = tested on: KAN80 (evolved MG1655); assay: microbe, parasite or virus in culture; type: cell-based, Escherichia coli; details: broth microdilution; kanamycin-evolved strain
Description: as §2, §1

Compound	MIC of MG1655 under the pressure of the same drug, generation 20 [2]	MIC of MG1655 under the pressure of the same drug, generation 30 [2]	MIC of MG1655 under the pressure of the same drug, generation 40 [2]	MIC of MG1655 under the pressure of the same drug, generation 50 [2]	MIC of MG1655 under the pressure of the same drug, generation 60 [2]	MIC of MG1655 under the pressure of the same drug, generation 70 [2]	MIC of MG1655 under the pressure of the same drug, generation 80 [2]	MIC of MG1655 under the pressure of the same drug, generation 90 [2]	MIC of MG1655 under the pressure of the same drug, generation 100 [2]	MIC of MG1655 under the pressure of the same drug, generation 110 [2]	MIC of MG1655 under the pressure of the same drug, generation 120 [2]	MIC of MG1655 under the pressure of the same drug, generation primary [2]	MIC of MG1655 under the pressure of the same drug, generation 10 [2]	MIC values of evolved MG1655, strain DOX120 [3]	MIC values of evolved MG1655, strain COL120 [4]	MIC values of evolved MG1655, strain CHL80 [5]	MIC values of evolved MG1655, strain NIT70 [6]	MIC values of evolved MG1655, strain AZI120 [7]	MIC values of evolved MG1655, strain TMP30 [8]	MIC values of evolved MG1655, strain CIP120 [9]	other results
OO [H2O2, hydrogen peroxide]																					survival rate of all strains after H2O2 treatment [1]: lower than 1%
CC(C)C[C@H](NC(=O)[C@H](Cc1ccc(O)cc1)NC(=O)[C@H](Cc1c[nH]cn1)NC(=O)[C@@H](NC(=O)[C@H](CC(C)C)NC(=O)[C@H](C)NC(=O)[C@H](C)NC(=O)[C@H](CCCCN)NC(=O)CNC(=O)[C@@H](NC(=O)[C@H](Cc1c[nH]cn1)NC(=O)[C@H](CCCCN)NC(=O)CNC(=O)[C@@H](NC(=O)[C@H](Cc1c[nH]cn1)NC(=O)[C@H](C)NC(=O)[C@H](C)NC(=O)[C@H](CCCCN)NC(=O)[C@H](CCCCN)NC(=O)[C@H](Cc1ccccc1)NC(=O)[C@H](Cc1ccccc1)NC(=O)[C@H](CO)NC(=O)CNC(=O)[C@H](Cc1c[nH]c2ccccc12)NC(=O)CN)C(C)C)C(C)C)[C@@H](C)O)C(=O)O [Pleu, Pleurocidin] (H-GWGSFFKKAAHVGKHVGKAALTHYL-OH)	2 µg/mL	2 µg/mL	2 µg/mL	2 µg/mL	2 µg/mL	2 µg/mL	2 µg/mL	2 µg/mL	2 µg/mL	2 µg/mL	2 µg/mL	2 µg/mL	2 µg/mL	1 µg/mL	1 µg/mL	1 µg/mL	1 µg/mL	1 µg/mL	1 µg/mL	1 µg/mL	MIC values of evolved MG1655, strain AMP120 [10]: 1 µg/mL; MIC values of evolved MG1655, strain KAN80 [11]: 1 µg/mL
CC(C)C[C@H](NC(=O)[C@H](CCCCN)NC(=O)[C@H](Cc1ccccc1)NC(=O)[C@@H](NC(=O)[C@H](CCCCN)NC(=O)CNC(=O)[C@H](CC(C)C)NC(=O)[C@@H](N)Cc1ccccc1)C(C)C)C(=O)N[C@@H](C)C(=O)N[C@@H](CO)C(=O)N[C@@H](CCCCN)C(=O)N[C@H](C(=O)N[C@@H](Cc1ccccc1)C(=O)N[C@@H](CCCCN)C(=O)N[C@@H](C)C(=O)N[C@H](C(=O)N[C@@H](Cc1ccccc1)C(=O)NCC(=O)N[C@@H](CCCCN)C(=O)N[C@H](C(=O)O)C(C)C)C(C)C)C(C)C [R8] (H-FLGKVFKLASKVFKAVFGKV-OH)	4 µg/mL	4 µg/mL	4 µg/mL	4 µg/mL	4 µg/mL	4 µg/mL	4 µg/mL	4 µg/mL	4 µg/mL	8 µg/mL	8 µg/mL	4 µg/mL	4 µg/mL	8 µg/mL	4 µg/mL	8 µg/mL	8 µg/mL	8 µg/mL	8 µg/mL	8 µg/mL	MIC values of evolved MG1655, strain AMP120 [10]: 4 µg/mL; MIC values of evolved MG1655, strain KAN80 [11]: 4 µg/mL
AC-Dab-Ile-Dab-Ile-Dab-D-Phe-Leu-Dab-D-Val-Leu-Ala-NH2 [SLAP, SLAP-S25, short-linear AMP]	8 µg/mL	8 µg/mL	8 µg/mL	16 µg/mL	16 µg/mL	16 µg/mL	32 µg/mL	32 µg/mL	32 µg/mL	64 µg/mL	64 µg/mL	4 µg/mL	4 µg/mL	2 µg/mL	8 µg/mL	2 µg/mL	2 µg/mL	32 µg/mL	4 µg/mL	2 µg/mL	evolution of resistance in MG1655 (in words) [2]: marginal increase in resistance; collateral sensitivity of AMP120 (fold change of MIC vs wild-type MG1655) ([10]; MIC of AMP120 compared with MG1655): exceeding fourfold; MIC values of evolved MG1655, strain AMP120 [10]: 1 µg/mL; MIC values of evolved MG1655, strain KAN80 [11]: 2 µg/mL
Fatty acyl-Dab-Thr-Dab-Dab-Dab-D-Leu-Leu-Dab-Dab-Thr [COL, Colistin, cationic lipopeptide antibiotic (polymyxin), source microorganism]	0.125 µg/mL	0.25 µg/mL	0.25 µg/mL	0.5 µg/mL	0.5 µg/mL	0.5 µg/mL	0.5 µg/mL	0.5 µg/mL	0.5 µg/mL	0.5 µg/mL	0.5 µg/mL	0.125 µg/mL	0.125 µg/mL	0.25 µg/mL	0.5 µg/mL	0.25 µg/mL	0.5 µg/mL	0.5 µg/mL	0.5 µg/mL	0.5 µg/mL	evolution of resistance in MG1655 (in words) [2]: marginal increase in resistance; MIC values of evolved MG1655, strain AMP120 [10]: 0.5 µg/mL; MIC values of evolved MG1655, strain KAN80 [11]: 0.5 µg/mL
